# Where a SMILES comes first, the peptide text is derived from it. Bridges are numbered along the chain shown (N, C = ends).
# Columns and labels:
# [1] = target: T1, human SSTR2 (Homo sapiens, UniProt P30874); experiment: cAMP accumulation inhibiting activity in SSTR2 expressing CHO cells (forskolin stimulated); assay type: cell-based; conditions: forskolin 10 μM, CHO cells SSTR2-HS5-9; read-out: ED50, inhibition of intracellular cAMP accumulation, SSTR2
# T1 construct: expressed in transfected cells; host or cells: CHO(dhfr-) cells, clone SSTR2-HS5-9, plasmid pAC01 (vector pAKKO-111)
# Procedure: (§1) For measuring the intracellular accumulations of cyclic adenosine 3′,5′-monophosphate (cAMP), the human somatostatin receptor expressing cell lines SSTR2-HS5-9, SSTR3-15-19, SSTR4-1-2 and SSTR5-32-4 respectively described in Reference Example 2 (3), Reference Example 3 (3), Reference Example 4 (3) and Reference Example 5 (3) were multiplied on 24-well plates until confluency. Said cells were washed with two 1-ml portions of medium A [Dulbecco-'s modified Eagle's medium (DMEM), 20 mM 2-[4-(2-hydroxyethyl)-1-piperazinyl]ethanesulfonic acid (HEPES) (pH. 7.5), 0.2% BSA, 0.2 mM 3-isobutyl-1-methylxanthine (IBMX)] and then 400 μl of medium A was added to each well and incubation was carried out at 37° C. for 1 hour. To each well were added 50 μl of a hCS-15 or hCS-17 solution (each diluted to a concentration 10 times the final concentration with medium A) and 50 μl of a forskolin solution (final concentration: 10 μM), and incubation was carried out at 37° C. for 30 minutes. The cells were washed with two 1-ml portions of medium A and then 500 μl of medium A and 100 μL of 20% aqueous perchloric acid solution were added to each well, followed by standing at 4° C. for 20 minutes for cell lysis. […] The amount of cAMP contained in this extract was determined using an Amersham's kit (cAMP EIA system).
# [2] = target: T2, human SSTR4 (Homo sapiens, UniProt P31391); experiment: cAMP accumulation inhibiting activity in SSTR4 expressing CHO cells (forskolin stimulated); assay type: cell-based; conditions: forskolin 10 μM, CHO cells SSTR4-1-2; read-out: ED50, inhibition of intracellular cAMP accumulation, SSTR4
# T2 construct: expressed in transfected cells; host or cells: CHO(dhfr-) cells, clone SSTR4-1-2, plasmid pA-1-11-SSTR4 (vector pAKKO-111)
# Procedure: as §1
# [3] = test system: rat electroencephalogram; experiment: Effect on the rat electroencephalogram (sleep-wakefulness); assay type: in vivo
# Procedure: Using male Jcl:Wistar rats (b. wt. 300˜350 g, approx.) under pentobarbital anesthesia (50 mg/kg, i.p.), the head was immobilized in a rat brain stereotaxic apparatus and the skull was drilled for placement of a screw electrode for cortical derivation and a stainless steel bipolar electrode for hippocampal derivation (A:−2.6, L:2.5, H:3.5, Pellegrino and Cushman Brain Atlas). A bipolar stainless steel needle electrode for recording an electromyogram was also inserted into the muscle layer in the dorsocervical region. All the electrodes were connected to a socket on the cranium and fixed with a dental cement. For administration of the test drug solution into the paracele, a 27-G stainless steel guide cannula was inserted in such a manner that the coordinates of its tip would be A:−0.4, L:1.7, H:1.7, and was fixed together with the EEG electrodes using a dental cement. A stilet was inserted into the guide cannula to prevent plugging of the cannula bore by tissue and blood. After postoperative recovery, the animal was submitted to the experiment. The rat was acclimatized to the experimental environment for at least 1 hour and either hCS-17 dissolved in phosphate buffered saline (PBS) or PBS was administered into the paracele via a 30-G infusion cannula. The electroencephalogram was recorded for 4 hours following administration of the test drug. The dose volume was 5 μl and the dose was 0.1 or 1 nmol. Control animals were similarly dosed with PBS.
# The sleep-wakefulness was monitored by visual reading of the polygram and evaluated by frequency analysis and power analysis and classified into the following categories.
# During this time, electromyographic activity is high.
# (2) SWS1 (Shallow-and-Slow Wave Sleep) and SWS2 (Deep-and-Slow Wave Sleep):
# The rat assumes a sleeping posture and delta waves (spindle waves) or high-amplitude, slow-waves appear in the cerebral cortex and high-amplitude, slow-waves, appear in the hippocampal derivation. During this period, electromyographic activity is decreased (SWS1) or absent (SWS2).
# (3) PS (Paradoxical Sleep):
# Alpha waves (low-amplitude, fast waves) appear in the cerebral cortex and theta waves (rhythmic waves) in the hippocampal derivation. During this period, electromyographic activity is absent.
# Using 5˜6 rats per group, hCS-17 and PBS were respectively injected into the same rat to evaluate the relative effect on wakefulness. Analysis for statistical significance was made by paired t-test.
# T2 sequence (P31391 whole entry): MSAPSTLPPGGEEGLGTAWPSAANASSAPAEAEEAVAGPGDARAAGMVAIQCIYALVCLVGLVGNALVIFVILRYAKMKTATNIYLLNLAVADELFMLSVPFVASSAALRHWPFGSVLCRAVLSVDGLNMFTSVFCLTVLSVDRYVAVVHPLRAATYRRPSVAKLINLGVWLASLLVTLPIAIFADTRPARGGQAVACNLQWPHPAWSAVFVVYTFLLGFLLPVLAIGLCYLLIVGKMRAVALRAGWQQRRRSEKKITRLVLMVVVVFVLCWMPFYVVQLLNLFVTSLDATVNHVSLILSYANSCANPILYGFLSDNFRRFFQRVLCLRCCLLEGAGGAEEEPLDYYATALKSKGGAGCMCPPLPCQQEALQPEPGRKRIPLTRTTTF
# T1 sequence (P30874 whole entry): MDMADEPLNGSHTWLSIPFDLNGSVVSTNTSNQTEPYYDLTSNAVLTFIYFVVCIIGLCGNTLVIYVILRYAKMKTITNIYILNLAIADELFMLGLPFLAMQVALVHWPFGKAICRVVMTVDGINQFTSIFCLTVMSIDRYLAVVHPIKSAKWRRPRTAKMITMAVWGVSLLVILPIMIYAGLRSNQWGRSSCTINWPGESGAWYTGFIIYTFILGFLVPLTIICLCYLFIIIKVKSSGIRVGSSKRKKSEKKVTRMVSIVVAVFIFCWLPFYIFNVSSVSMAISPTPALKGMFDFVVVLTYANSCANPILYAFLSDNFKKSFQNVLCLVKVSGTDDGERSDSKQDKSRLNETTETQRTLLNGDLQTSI
Structure (SMILES),EC50 [1] [nM],EC50 [2] [nM],PS (paradoxical sleep) occupancy time vs PBS ([3]; 0.1 nmol into the paracele),SWS1 (shallow-and-slow wave sleep) occupancy time vs PBS ([3]; 0.1 nmol into the paracele),SWS2 (deep-and-slow wave sleep) occupancy time vs PBS ([3]; 0.1 nmol into the paracele),animals showing flattening of the EEG patterns ([3]; 0.1 nmol into the paracele),wakefulness time (percent occupancy of 4 hour EEG recording) vs PBS ([3]; 0.1 nmol into the paracele),PS (paradoxical sleep) occupancy time vs PBS ([3]; 1 nmol into the paracele),SWS1 (shallow-and-slow wave sleep) occupancy time vs PBS ([3]; 1 nmol into the paracele),SWS2 (deep-and-slow wave sleep) occupancy time vs PBS ([3]; 1 nmol into the paracele),animals showing flattening of the EEG patterns ([3]; 1 nmol into the paracele),duration of flattening of cortical and hippocampal EEG patterns ([3]; immediately after administration into the paracele)
CSCC[C@H](N)C(=O)N1CCC[C@H]1C(=O)N[C@H]1CSSC[C@@H](C(=O)N[C@@H](CCCCN)C(=O)O)NC(=O)[C@H](CO)NC(=O)[C@H](CO)NC(=O)[C@H](Cc2ccccc2)NC(=O)[C@H]([C@@H](C)O)NC(=O)[C@H](CCCCN)NC(=O)[C@H](Cc2c[nH]c3ccccc23)NC(=O)[C@H](Cc2ccccc2)NC(=O)[C@H](Cc2ccccc2)NC(=O)[C@H](CC(N)=O)NC(=O)[C@H](CCCNC(=N)N)NC1=O [hCS-15] (H-MPCRNFFWKTFSSCK-OH; disulfide 3-14; N-terminus and C-terminus assumed),7,0.2,–,–,–,–,–,–,–,–,–,–
CSCC[C@H](NC(=O)[C@H](CCCNC(=N)N)NC(=O)[C@@H](N)CC(=O)O)C(=O)N1CCC[C@H]1C(=O)N[C@H]1CSSC[C@@H](C(=O)N[C@@H](CCCCN)C(=O)O)NC(=O)[C@H](CO)NC(=O)[C@H](CO)NC(=O)[C@H](Cc2ccccc2)NC(=O)[C@H]([C@@H](C)O)NC(=O)[C@H](CCCCN)NC(=O)[C@H](Cc2c[nH]c3ccccc23)NC(=O)[C@H](Cc2ccccc2)NC(=O)[C@H](Cc2ccccc2)NC(=O)[C@H](CC(N)=O)NC(=O)[C@H](CCCNC(=N)N)NC1=O [hCS-17],–,–,significantly decreased,tendency toward decrease,toward increase,2 out of 5,not different from the PBS control group,decrease,significant decrease,increase,4 out of 6,3˜5 minutes

# From US7074761B1, “Peptides and production and use thereof” (Takeda Chemical Ind., Ltd., priority 1996, dated 2006)
